From US5047228A, “Nonionic 5-C-substituted 2,4,6-triiodoisophthalic acid derivatives” (Schering Aktiengesellschaft, priority 1980, dated 1991) come the findings set out here.

Data set [1] can be described thus: Stability in heat sterilization. It is filed as physicochemical. The text has this: The present invention comprises nonionic X-ray contrast media based on the opacifying compounds of this invention with novel basic structures. These novel opacifying compounds are distinguished by a number of advantages. They are derived from triiodinated aromatic basic components which themselves are hydrophilic and nontoxic. […] They are also distinguished by a high chemical stability, especially also under the conditions of heat sterilization.
Solutions of the compounds of this invention can thus also be sterilized in the usual way by heating to 120° C. at a physiological pH value. The solutions have a low osmotic pressure even at high iodine concentrations, compared with the state of the art ionic X-ray contrast media. This is especially a prerequisite for a good local compatibility.

The nature of data set [2]: Distribution coefficient butanol/buffer pH 7.6. It counts as physicochemical. The source says:
The distribution coefficient of a compound permits ascertainment of its hydrophilicity and thus its compatibility; the lower the value of the distribution coefficient, the higher the compatibility of the compound tested.

The subject of another data set is dog erythrocytes. Put plainly: Erythrocyte damage (echinocyte formation in dog erythrocytes). It counts as cell-based. Conditions: effect of metrizamide set at 10 as a standard, smaller number = higher compatibility. The procedure: The deformation of erythrocytes (erythrocyte damage) due to X-ray contrast media can be taken as a measure for the membrane-damaging effect of the compound. In this instance, the formation of echinocytes was measured in dog erythrocytes, setting the effect of metrizamide at 10 as a standard. A smaller number signifies a correspondingly higher compatibility.

The next data set can be described thus: LD50 mouse (i.v.). Conditions: in vivo, iv, injection rate 2 ml/min, concentration 300 mg/ml, observation period 24 h. The procedure:
(§1) *Injection rate 2 ml/min; concentration 300 mg/ml; observation period 24

The next data set can be described thus: LD50 rat (i.v.). Conditions: in vivo, iv, injection rate 2 ml/min, concentration 300 mg/ml, observation period 24 h. How it is done:
as §1

The next data set in a line: Iodine content. It is filed as physicochemical.

The term LD50 denotes the dose at which mortality reaches 50%. A lower LD50 goes with a more toxic substance. For `CC(=O)Nc1c(I)c(C(=O)N[C@H]2C(O)O[C@H](CO)[C@@H](O)[C@@H]2O)c(I)c(N(C)C(C)=O)c1I` (stereo partly drawn) [A, reference compound], the “Stable in Heat Sterilization” value in data set [1] is “No”. Moreover, the “Distribution Coefficient Butanol/Buffer pH 7.6” value in data set [2] was determined as 0.259. In the data set with dog erythrocytes, the “Erythrocyte Damage” value was 10. Besides, the LD50 at 24 h stood at 12000 mg/kg in the data set “LD50 mouse (i.v.)” and 11000 mg/kg in the data set “LD50 rat (i.v.)”. This compound also came in with an Iodine Content in the data set “Iodine content” of 48%.

Take `CN(CC(O)C(O)C(O)C(O)CO)C(=O)c1c(I)c(C(=O)N(C)CC(O)C(O)C(O)C(O)CO)c(I)c(C(=O)N(C)CC(O)C(O)C(O)C(O)CO)c1I` (stereo not drawn) [E, 2,4,6-triiodobenzene-1,3,5-tricarboxylic acid tris(2,3,4,5,6-pentahydroxyhexyl-N-methyl)triamide]: the “Stable in Heat Sterilization” value in data set [1] is reported as “Yes”. Further, the “Distribution Coefficient Butanol/Buffer pH 7.6” value in data set [2] is below 0.001. Moreover, the “Erythrocyte Damage” value in the data set with dog erythrocytes was below 0.3. For the same compound, the Iodine Content in the data set “Iodine content” stood at 34%.

As to `CN(CC(O)CO)C(=O)c1c(I)c(C(=O)N(C)CC(O)CO)c(I)c(C(=O)N(C)CC(O)CO)c1I` (stereo not drawn) [B, 2,4,6-triiodobenzene-1,3,5-tricarboxylic acid tris(2,3-dihydroxypropyl-N-methyl)triamide], in data set [1], the “Stable in Heat Sterilization” value is given as “Yes”. The “Distribution Coefficient Butanol/Buffer pH 7.6” value in data set [2] is recorded as 0.064. Also, the “Erythrocyte Damage” value in the data set on dog erythrocytes stood at 2.1. Further, the figures for the LD50 at 24 h in the data set “LD50 mouse (i.v.)” and in the data set “LD50 rat (i.v.)” were 16000 mg/kg and 11000 mg/kg, respectively. The same compound came in with an Iodine Content in “Iodine content” of 45%.

In the case of `CNC(=O)c1c(I)c(C(=O)NC(CO)C(O)CO)c(I)c(C(=O)NC(CO)C(O)CO)c1I` (stereo not drawn) [G, 5-N-methylcarbamoyl-2,4,6-triiodoisophthalic acid bis(2,3-dihydroxy-1-hydroxymethylpropyl)diamide], the “Stable in Heat Sterilization” value in data set [1] was “Yes”. For the same compound, in data set [2], the “Distribution Coefficient Butanol/Buffer pH 7.6” value is given as 0.065. Besides, in the data set with dog erythrocytes, the “Erythrocyte Damage” value was 2.8. Also, the LD50 at 24 h in the data set “LD50 rat (i.v.)” is 19000 mg/kg. This compound displayed an Iodine Content in the data set “Iodine content” of 47%.

In the case of `O=C(c1c(I)c(C(=O)N(CCO)CCO)c(I)c(C(=O)N(CCO)CCO)c1I)N(CCO)CCO` [C, 2,4,6-triiodobenzene-1,3,5-tricarboxylic acid tris(bis-2-hydroxyethyl)triamide], the “Stable in Heat Sterilization” value in data set [1] was “Yes”. The “Distribution Coefficient Butanol/Buffer pH 7.6” value in data set [2] turned out to be 0.131. For the same compound, the “Erythrocyte Damage” value in the data set with dog erythrocytes turned out to be 1.8. In the data set “LD50 rat (i.v.)”, this compound showed an LD50 at 24 h of 12000 mg/kg. The compound also had an Iodine Content in the data set “Iodine content” of 45%.

For `CN(CC(O)CO)C(=O)c1c(I)c(C(N)=O)c(I)c(C(=O)N(C)CC(O)CO)c1I` (stereo not drawn) [D, 2,4,6-triiodobenzene-1,3,5-tricarboxylic acid bis(2,3-dihydroxypropyl-N-methyl)triamide], in data set [1], the “Stable in Heat Sterilization” value was “Yes”. Also, the “Distribution Coefficient Butanol/Buffer pH 7.6” value in data set [2] is recorded as 0.074. In addition, in the data set on dog erythrocytes, the “Erythrocyte Damage” value came out at 4.2. Further, the Iodine Content in “Iodine content” came out at 50%.

Turning to `CN(C)C(=O)c1c(I)c(C(=O)NCC(O)CO)c(I)c(C(=O)NCC(O)CO)c1I` (stereo not drawn) [F, 2,4,6-triiodobenzene-1,3,5-tricarboxylic acid [(N,N-dimethyl)-bis(2,3-dihydroxypropyl)]-triamide], the “Stable in Heat Sterilization” value in data set [1] is “Yes”. Also, the “Distribution Coefficient Butanol/Buffer pH 7.6” value in data set [2] was 0.171. The “Erythrocyte Damage” value with dog erythrocytes is reported as 2.7. Besides, the LD50 at 24 h worked out at 14000 mg/kg in “LD50 mouse (i.v.)” and 11000 mg/kg in “LD50 rat (i.v.)”. Further, the Iodine Content in the data set “Iodine content” came to 50%.
